“And” between values parts separate entries of the source, which are not always exact repeats. Equal entries are not always repeated. Toxic doses and inconclusive results are not listed. No stated cut-off is given here; in the data, active means T/C of 150% or more; inactive means T/C below 125%.
Test system: L1210 leukemia ip in BDF1 mice, survival T/C
Test: NCI In Vivo Anticancer Drug Screen. Data for tumor model L1210 Leukemia (intraperitoneal) in B6D2F1 (BDF1) mice
Details: endpoint: mean survival time, higher = longer survival
Summary of the method: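 Tumor was transplanted into mice, which were then dosed with test compound or vehicle alone. Survival was recorded for each group, and the treated figure was expressed relative to the control figure.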

[1] = dose: 10.0 mg/kg/injection, schedule: Q01DX001 (ip), vehicle: saline
[2] = dose: 20.0 mg/kg/injection, schedule: Q01DX001 (ip), vehicle: saline
[3] = dose: 40.0 mg/kg/injection, schedule: Q01DX001 (ip), vehicle: saline
[4] = dose: 100.0 mg/kg/injection, schedule: Q01DX001 (ip), vehicle: saline
[5] = dose: 200.0 mg/kg/injection, schedule: Q01DX001 (ip), vehicle: saline
[6] = dose: 400.0 mg/kg/injection, schedule: Q01DX001 (ip), vehicle: saline
[7] = dose: 100.0 mg/kg/injection, schedule: Q01DX001 (ip), vehicle: carboxymethylcellulose (CMC)
[8] = dose: 200.0 mg/kg/injection, schedule: Q01DX001 (ip), vehicle: carboxymethylcellulose (CMC)
[9] = dose: 400.0 mg/kg/injection, schedule: Q01DX001 (ip), vehicle: carboxymethylcellulose (CMC)
[10] = dose: 100.0 mg/kg/injection, schedule: Q01DX009 (ip), vehicle: saline with Tween-80
[11] = dose: 100.0 mg/kg/injection, schedule: Q01DX009 (ip), vehicle: Klucel (hydroxypropylcellulose) (HPC)
[12] = dose: 200.0 mg/kg/injection, schedule: Q01DX009 (ip), vehicle: Klucel (hydroxypropylcellulose) (HPC)
[13] = dose: 50.0 mg/kg/injection, schedule: Q01DX009 (ip), vehicle: saline with Tween-80
[14] = dose: 200.0 mg/kg/injection, schedule: Q01DX009 (ip), vehicle: saline with Tween-80
[15] = dose: 100.0 mg/kg/injection, schedule: Q04DX003 (ip), vehicle: saline with Tween-80
[16] = dose: 200.0 mg/kg/injection, schedule: Q04DX003 (ip), vehicle: saline with Tween-80
[17] = dose: 400.0 mg/kg/injection, schedule: Q04DX003 (ip), vehicle: saline with Tween-80
[18] = dose: 200.0 mg/kg/injection, schedule: Q01DX001 (ip), vehicle: saline with Tween-80
[19] = dose: 400.0 mg/kg/injection, schedule: Q01DX001 (ip), vehicle: saline with Tween-80

Measured: T/C

FC(F)(F)c1ccc2c(c1)N(CCCN1CCN(CCOCCCl)CC1)c1ccccc1S2
inactive: dose: 0.19 mg/kg/injection, schedule: Q01DX009 (ip), vehicle: saline 104 % of control | dose: 0.39 mg/kg/injection, schedule: Q01DX009 (ip), vehicle: saline 94 % of control | dose: 0.78 mg/kg/injection, schedule: Q01DX009 (ip), vehicle: saline 98 % of control | dose: 1.17 mg/kg/injection, schedule: Q04DX003 (ip), vehicle: saline 101 % of control | dose: 1.56 mg/kg/injection, schedule: Q01DX009 (ip), vehicle: saline 107 % of control | dose: 2.34 mg/kg/injection, schedule: Q04DX003 (ip), vehicle: saline 95 % of control | dose: 3.12 mg/kg/injection, schedule: Q01DX009 (ip), vehicle: saline 89 % of control | dose: 4.68 mg/kg/injection, schedule: Q04DX003 (ip), vehicle: saline 98 % of control | dose: 6.25 mg/kg/injection, schedule: Q04DX003 (ip), vehicle: saline 108 % of control | dose: 9.9 mg/kg/injection, schedule: Q01DX001 (ip), vehicle: saline 97 % of control | dose: 12.5 mg/kg/injection, schedule: Q04DX003 (ip), vehicle: saline 119 % of control | dose: 15.0 mg/kg/injection, schedule: Q01DX001 (ip), vehicle: saline 102 % of control | dose: 22.5 mg/kg/injection, schedule: Q01DX001 (ip), vehicle: saline 103 % of control | dose: 25.0 mg/kg/injection, schedule: Q04DX003 (ip), vehicle: saline 122 % of control | dose: 50.0 mg/kg/injection, schedule: Q04DX003 (ip), vehicle: saline 90 % of control

OCCN(CCO)CCN1c2ccccc2Sc2ccccc21
inactive: dose: 5.0 mg/kg/injection, schedule: Q01DX001 (ip), vehicle: saline 95 % of control | [1] 97 % of control | [2] 92 % of control | [3] 95 % of control | dose: 80.0 mg/kg/injection, schedule: Q01DX001 (ip), vehicle: saline 95 % of control | [4] 96 % of control | [5] 112 % of control

CCOc1cccnc1/C=N/NC(N)=S
inactive: dose: 50.0 mg/kg/injection, schedule: Q01DX001 (ip), vehicle: saline 106 % of control | [4] 102 % of control | [5] 100 % of control | [6] 108 % of control

C=CCOc1ccc2c(cc1=O)C(NC(C)=O)CCc1cc(OC)c(OC)c(OC)c1-2 (stereo unspecified)
inactive: [7] 114 % of control | [8] 120 % of control | [9] 117 % of control

N#C/C(=C\c1c(O)ccc2ccccc12)c1ccc([N+](=O)[O-])cc1
inactive: dose: 66.0 mg/kg/injection, schedule: Q01DX009 (ip), vehicle: saline with Tween-80 89 % of control | [10] 91 % of control | dose: 150.0 mg/kg/injection, schedule: Q01DX009 (ip), vehicle: saline with Tween-80 86 % of control

CCC1CCCCN1CCNc1ccc(CO)c2sc3ccccc3c(=O)c12 (stereo unspecified)
inactive: dose: 50.0 mg/kg/injection, schedule: Q01DX009 (ip), vehicle: Klucel (hydroxypropylcellulose) (HPC) 101 % of control | [11] 115 % of control | [12] 120 % of control

COC(=O)Cc1ccccc1OC
inactive: [13] 87 % of control | [10] 87 % of control | [14] 87 % of control

Cc1c(C)c2c(c(C)c1O)CCC(=O)O2
inactive: [15] 91 % of control | [16] 92 % of control | [17] 94 % of control

O=[As](O)(c1ccccc1)C1CCCCC1O (stereo unspecified)
inactive: dose: 6.25 mg/kg/injection, schedule: Q01DX001 (ip), vehicle: saline with Tween-80 97 % of control | dose: 12.5 mg/kg/injection, schedule: Q01DX001 (ip), vehicle: saline with Tween-80 98 % of control | dose: 25.0 mg/kg/injection, schedule: Q01DX001 (ip), vehicle: saline with Tween-80 111 % of control

CC1=CC(=O)C2=C(C)CCC3C(C)C(=O)OC3C12 (stereo unspecified)
inactive: [18] 98 % of control
active: [19] 162 % of control

CC(C(=O)c1ccc(F)cc1)C(O)(C(F)(F)F)C(F)(F)F (stereo unspecified)
inactive: dose: 100.0 mg/kg/injection, schedule: Q04DX003 (ip), vehicle: Klucel (hydroxypropylcellulose) (HPC) 94 % of control | dose: 200.0 mg/kg/injection, schedule: Q04DX003 (ip), vehicle: Klucel (hydroxypropylcellulose) (HPC) 95 % of control | dose: 400.0 mg/kg/injection, schedule: Q04DX003 (ip), vehicle: Klucel (hydroxypropylcellulose) (HPC) 103 % of control

CNC1CCCCC1
inactive: dose: 50.0 mg/kg/injection, schedule: Q01DX001 (ip), vehicle: carboxymethylcellulose (CMC) 96 % of control | [7] 102 % of control | [8] 106 % of control | [9] 112 % of control

CNC(=O)n1cncn1
inactive: [4] 95 % of control | dose: 100.0 mg/kg/injection, schedule: Q04DX003 (ip), vehicle: saline 101 % of control | [5] 93 % of control | dose: 200.0 mg/kg/injection, schedule: Q04DX003 (ip), vehicle: saline 95 % of control | [6] 95 % of control

CC1(C)OC2CS(=O)(=O)CC2O1 (stereo unspecified)
inactive: [15] 100 % of control | [16] 105 % of control | [17] 102 % of control

CC1C2c3ccccc3C(c3ccccc32)C1S(=O)(=O)F (stereo unspecified)
inactive: [11] 97 % of control | [12] 100 % of control | dose: 400.0 mg/kg/injection, schedule: Q01DX009 (ip), vehicle: Klucel (hydroxypropylcellulose) (HPC) 106 % of control

CC1(C)CC[C@]2(C(=O)O)CC[C@]3(C)C(=CC[C@@H]4[C@@]5(C)CC[C@H](O)C(C)(C)[C@@H]5CC[C@]43C)[C@@H]2C1
inactive: dose: 50.0 mg/kg/injection, schedule: Q01DX009 (ip), vehicle: saline 94 % of control | dose: 100.0 mg/kg/injection, schedule: Q01DX001 (sc), vehicle: saline 103 % of control | dose: 100.0 mg/kg/injection, schedule: Q01DX009 (ip), vehicle: saline 94 % of control | dose: 100.0 mg/kg/injection, schedule: Q04DX002 (ip), vehicle: saline 97 % of control | dose: 200.0 mg/kg/injection, schedule: Q01DX001 (sc), vehicle: saline 103 % of control | dose: 200.0 mg/kg/injection, schedule: Q01DX009 (ip), vehicle: saline 97 % of control | dose: 200.0 mg/kg/injection, schedule: Q04DX002 (ip), vehicle: saline 97 % of control | dose: 400.0 mg/kg/injection, schedule: Q01DX001 (sc), vehicle: saline 103 % of control | dose: 400.0 mg/kg/injection, schedule: Q04DX002 (ip), vehicle: saline 94 % of control

COc1cc([N+](=O)[O-])ccc1NC(=O)N(C1CCCCC1)C1CCCCC1
inactive: [13] 100 % of control and 106 % of control | dose: 50.0 mg/kg/injection, schedule: Q04DX002 (ip), vehicle: saline with Tween-80 90 % of control | dose: 100.0 mg/kg/injection, schedule: Q01DX001 (ip), vehicle: saline with Tween-80 95 % of control | [10] 96 % of control and 108 % of control | dose: 100.0 mg/kg/injection, schedule: Q04DX002 (ip), vehicle: saline with Tween-80 93 % of control and 99 % of control and 105 % of control | [15] 108 % of control | [18] 91 % of control | [14] 100 % of control and 104 % of control | dose: 200.0 mg/kg/injection, schedule: Q04DX002 (ip), vehicle: saline with Tween-80 89 % of control | [16] 106 % of control | [19] 91 % of control | dose: 400.0 mg/kg/injection, schedule: Q01DX009 (ip), vehicle: saline with Tween-80 108 % of control and 111 % of control | dose: 400.0 mg/kg/injection, schedule: Q04DX002 (ip), vehicle: saline with Tween-80 93 % of control and 97 % of control and 99 % of control | [17] 104 % of control

CCC(Cl)COP(=O)(OCC(Cl)CC)C(OP(=S)(OCC(Cl)CC)OCC(Cl)CC)C(C)C (stereo unspecified)
inactive: dose: 50.0 mg/kg/injection, schedule: Q04DX002 (sc), vehicle: olive oil, sesame oil, peanut oil 104 % of control | dose: 100.0 mg/kg/injection, schedule: Q04DX002 (sc), vehicle: olive oil, sesame oil, peanut oil 118 % of control | dose: 200.0 mg/kg/injection, schedule: Q04DX002 (sc), vehicle: olive oil, sesame oil, peanut oil 110 % of control

O=C1C=CC(=O)N1c1cc(Cl)c(Cl)cc1Cl
inactive: [1] 97 % of control | [2] 87 % of control | [3] 95 % of control

CC1(C)NC(C(=O)O)CS1 (stereo unspecified)
inactive: [4] 101 % of control | [5] 90 % of control | [6] 95 % of control
